Laboratory results reported in ChEMBL document CHEMBL1158831, “Meroditerpenoids from a Formosan soft coral Nephthea chabrolii” (J Nat Prod, 2005).

Key:
Type in all cases: functional, cell-based
[1] = tested on: MDA-MB-231; test: Cytotoxicity against human MDA-MB-231cells after 6 days by MTT method; details: MDA-MB-231, 144 h
[2] = tested on: A549; test: Cytotoxicity against human A549 cells after 6 days by MTT method; details: A549, 144 h
[3] = tested on: HepG2; test: Cytotoxicity against human HepG2 cells after 6 days by MTT method; details: HepG2, 144 h

SMILES | IC50 [1] | IC50 [2] | IC50 [3]
CC(=O)O[C@H](CC/C(C)=C/CCc1ccc2c(c1)C(=O)C(C)=CC2=O)[C@@](C)(O)CCC=C(C)C [CHABROLONAPHTHOQUINONE B] | 4.7 µM | 33.9 µM | 12.4 µM
CC(C)=CCC/C(=C/CC/C(C)=C/CC/C(C)=C/CC1=CC(=O)C(C)=CC1=O)CO [CHABROLOBENZOQUINONE E] | > 48.8 µM | > 48.8 µM | > 48.8 µM
CC(=O)OC/C(=C\CC/C(C)=C/CC/C(C)=C/CC1=CC(=O)C(C)=CC1=O)CCC=C(C)C [CHABROLOBENZOQUINONE F] | 33.2 µM | 38.1 µM | 38.1 µM
CC(=O)O[C@H](CC/C(C)=C/CC[C@](C)(O)/C=C\c1cc(O)c(C)cc1O)[C@@](C)(O)CCC=C(C)C [CHABROLOHYDROXYBENZOQUINONE G] | 18 µM | 26.8 µM | 18.4 µM
COc1cccc2c1C(=O)c1c(O)c3c(c(O)c1C2=O)C[C@@](O)(C(=O)CO)C[C@@H]3O[C@H]1C[C@H](N)[C@H](O)[C@H](C)O1 [DOXORUBICIN] | 0.07 µM | 0.17 µM | 0.17 µM
CC(C)=CCC/C(C)=C/CC/C(C)=C/CC[C@](C)(O)/C=C\c1cc(O)c(C)cc1O [CHABROLOHYDROXYBENZOQUINONE E] | > 48.5 µM | > 48.5 µM | > 48.5 µM
CC(=O)O[C@H](CC/C(C)=C/CC/C(C)=C/CC1=CC(=O)C(C)=CC1=O)[C@@](C)(O)CCC=C(C)C [CHABROLOBENZOQUINONE H] | 31.4 µM | 38 µM | > 42.5 µM
CC(C)=CCC/C(C)=C/[C@@H](O)C/C(C)=C/CC[C@](C)(O)/C=C\c1cc(O)c(C)cc1O [CHABROLOHYDROXYBENZOQUINONE F] | > 46.7 µM | 42.3 µM | 44.4 µM
